In one experiment the test system is cervical fibroblasts. The experiment is described as follows: Effect on Ca2+ levels in cervical fibroblasts (Fluo-4 fluorescence). In kind it is cell-based, human. Particulars: cultures from non-pregnant and term pregnant patients. As for the experimental part:
Fibroblast cultures were established from non-pregnant, and term pregnant patients and from women delivered vaginally (after partus patients). The cells were cultured in monolayer cultures with minimum essential medium with 10% donor calf serum. For experiments these cells were plated on cover glasses with at semi-confluence and loaded with Fluo-4 in phosphate buffered saline containing 10 mM HEPES for 30 min. Initially phosphate buffered saline containing 10 mM HEPES (HEPES-buffer) was pumped into the observation chamber for 30 s, then KCl in the same buffer was pumped for 60 s followed by HEPES-buffer for 30 s. Then 10 ng of PDGF/ml in HEPES-buffer was added. The fluorescence was monitored continuously for 3 min. In other experiments PDGF was replaced with 100 μg of HS6. […] This effect is postulated to be of importance at partus for final preparation of cervix for delivery.

Experiment [1] deals with human uterine strips (myometrial strip). Kind of experiment: Contractile assay on uterine strips in organ bath. Particulars: 1 U oxytocin only. As for the experimental part: In the following test heparan sulfate HS2 and HS6 obtained from the heparin side fraction TB 001-91 SVCM 950130 (Kabi-Pharmacia, Sweden) were tested. HS6 differs from HS2 by being more highly sulfated and having more L-iduronic acid residues (see Table 1 above).
Uterine samples were obtained from women undergoing elective caesarian section at 38-39 weeks of gestation. The samples measured 20×10×10 mm and were taken from the upper part of the isthmic incision. The biopsy was immediately placed in ice-cold Krebs-Ringer buffer. The biopsies were cut into longitudinal strips, length 10-15 mm and breadth about 5 mm. The strip was mounted vertically in an organ bath of 37° C. containing 2 ml Krebs-Ringer solution. The solution was bubbled with a mixture of 95% O2 and 5% CO2 in order to maintain a pH in the bath of 7.35-7.45. Experiments were carried out after the strips had equilibrated to a stable contractile state, usually within 1-2 h after mounting. The contractions were recorded isometrically with a Grass model 7 polygraph (Grass Instr. Co., Quincy, Mass., USA). All samples were exposed to 100 mM KCl during the experiment in order to get a standardized maximum response. […]
This procedure was repeated using 6 μg of heparan sulfate. […] The contractions were recorded and evaluated by integrating the surface under the curve. […]

The values below come from patent US8524688B2, “Use of sulfated glycosaminoglycans for establishing effective labor in women” (Dilafor AB, priority 2002, dated 2013).

As to `[Cl-].[K+]` [KCl], in the experiment on cervical fibroblasts, the “Change of fluorescence (intracellular Ca2+)” value is “No change of fluorescence”.

As to `CC[C@H](C)[C@@H]1NC(=O)[C@H](Cc2ccc(O)cc2)NC(=O)[C@@H](N)CSSC[C@@H](C(=O)N2CCC[C@H]2C(=O)N[C@@H](CC(C)C)C(=O)NCC(N)=O)NC(=O)[C@H](CC(N)=O)NC(=O)[C@H](CCC(N)=O)NC1=O` [Oxytocin, oxytocin], the “Relative contractility of myometrial strip, oxytocin control” value in experiment [1] was 226 % of unstimulated control.

Consider PDGF, for which the “Change of fluorescence (intracellular Ca2+)” value with cervical fibroblasts was “No change of fluorescence”.
